Laboratory results from patent US10517889B2, “Modulators of SMAD7 expression” (Ionis Pharmaceuticals, Inc., priority 2017, dated 2019).
Strand notation (5' to 3'): a small letter for the sugar, then the base; units joined by * are phosphorothioate-linked, units joined directly phosphodiester-linked; [ ] holds rarer units or linkages, { } end groups; capitals alone tell only the bases. k = constrained ethyl (cEt); [5mC] = 5-methylcytosine; d = 2'-deoxy (DNA)

System: human SMAD7 mRNA
Experiment: Antisense inhibition of human SMAD7 mRNA expression in Hep3B cells by 3-10-3 cEt gapmers, 10,000 nM, electroporation (Example 2)
Type: cell-based
Settings: Hep3B cells, 10,000 nM antisense oligonucleotide, electroporation, approximately 24 hours, RT-PCR primer probe set RTS5062, relative to untreated control cells
Summary of the method: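 SMAD7 mRNA was measured by real-time PCR (RTS5062) with RiboGreen total-RNA normalization, about 24 h after 10,000 nM gapmer was delivered by electroporation into Hep3B cells at 20,000 per well. Gapmers were 16-mer 3-10-3 cEt, fully phosphorothioate; values are % inhibition versus untreated controls.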

Substance | % Inhibition
798837 (kG*k[5mC]*kT*dG*dT*d[5mC]*d[5mC]*dG*dA*dG*dG*d[5mC]*dA*kA*kA*kA; antisense) [compound 798837] | 33%
772621 (kA*kA*k[5mC]*dT*dG*d[5mC]*dT*dG*d[5mC]*dG*dG*dT*dT*kG*kT*kA; antisense) [compound 772621] | 38%
772597 (k[5mC]*kA*kG*dT*dA*dT*dG*d[5mC]*d[5mC]*dA*d[5mC]*d[5mC]*dA*k[5mC]*kG*k[5mC]; antisense) [compound 772597] | 0%

Same assay, conditions: Hep3B cells, electroporation with 10,000 nM antisense oligonucleotide, approximately 24 hours, RTS5062, percent inhibition of SMAD7 mRNA relative to untreated control cells

Substance | % Inhibition
799784 (k[5mC]*kA*kG*dG*dA*dA*d[5mC]*dT*dG*dG*dT*d[5mC]*d[5mC]*kT*k[5mC]*kT; antisense) [compound 799784] | 19%
799783 (kG*k[5mC]*kA*d[5mC]*dA*dT*dA*dA*dT*dA*dG*dG*dT*kG*kT*k[5mC]; antisense) [compound 799783] | 24%
799551 (kT*kT*kA*d[5mC]*dA*dG*d[5mC]*dT*d[5mC]*d[5mC]*dT*dA*d[5mC]*kT*kG*kT; antisense) [compound 799551] | 12%
799533 (kG*kA*kA*dT*dG*dA*dA*dG*dT*d[5mC]*d[5mC]*dA*dG*kA*k[5mC]*k[5mC]; antisense) [compound 799533] | 50%

Same assay, conditions: Hep3B cells, electroporation with 10,000 nM antisense oligonucleotide, approximately 24 hours, SMAD7 mRNA by RT-PCR (RTS5062), relative to untreated control cells

Substance | % Inhibition
798851 (kA*k[5mC]*k[5mC]*dA*dT*d[5mC]*d[5mC]*dA*d[5mC]*d[5mC]*dT*d[5mC]*d[5mC]*k[5mC]*kG*k[5mC]; antisense) [compound 798851] | 21%
800107 (antisense kA*kA*kT*d[5mC]*dT*dA*dG*dA*dA*dA*dA*d[5mC]*dA*k[5mC]*kA*kT) [compound 800107] | 0%
799961 (antisense k[5mC]*k[5mC]*kT*dA*dA*dA*dA*d[5mC]*dA*dG*dG*dG*dT*kT*k[5mC]*k[5mC]) [compound 799961] | 20%
799431 (antisense kG*kA*k[5mC]*dA*dG*d[5mC]*d[5mC]*dA*d[5mC]*dA*dA*dG*dT*k[5mC]*kA*k[5mC]) [compound 799431] | 39%
798884 (k[5mC]*kG*kG*dT*dA*dA*dA*dG*d[5mC]*d[5mC]*d[5mC]*dG*dT*k[5mC]*k[5mC]*kA; antisense) [compound 798884] | 15%
830064 (kA*kT*kG*dG*dT*dG*d[5mC]*dT*d[5mC]*dT*dG*d[5mC]*d[5mC]*k[5mC]*kT*kT; antisense) [compound 830064] | 29%
799489 (antisense kT*k[5mC]*kT*dA*dA*dA*d[5mC]*d[5mC]*dA*dT*dT*dT*dT*kG*kA*kT) [compound 799489] | 0%
830102 (kA*kG*k[5mC]*d[5mC]*d[5mC]*dG*d[5mC]*dT*d[5mC]*dT*d[5mC]*dA*dG*k[5mC]*k[5mC]*kA; antisense) [compound 830102] | 43%
830038 (antisense k[5mC]*k[5mC]*kT*dA*dT*dT*dG*dG*d[5mC]*dT*dG*dA*dT*k[5mC]*kT*kG) [compound 830038] | 50%
799434 (antisense kT*kG*kA*dA*dA*d[5mC]*dA*d[5mC]*dG*dG*dG*dA*dA*kG*k[5mC]*kA) [compound 799434] | 37%
790515 (k[5mC]*kG*kT*d[5mC]*dA*dG*d[5mC]*dT*dG*dG*dA*dT*dG*k[5mC]*k[5mC]*kG; antisense) [compound 790515] | 26%
799411 (antisense kT*kG*kG*dA*dG*dA*dA*d[5mC]*dT*dT*dT*dT*d[5mC]*kT*k[5mC]*k[5mC]) [compound 799411] | 0%

Same assay, conditions: Hep3B cells, electroporation with 10,000 nM antisense oligonucleotide, approximately 24 hours, primer probe set RTS5062, relative to untreated control cells

Substance | % inhibition of SMAD7 mRNA expression | % Inhibition
799386 (antisense kA*kG*kG*dA*dG*d[5mC]*dT*dA*dA*dA*dT*dG*dG*kT*kG*k[5mC]) [compound 799386] | 12% | –
799206 (kT*kA*kT*dA*dT*dT*dT*dA*d[5mC]*dA*dA*dG*dT*kA*kA*kT; antisense) [compound 799206] | – | 0%
799480 (antisense k[5mC]*kA*k[5mC]*dA*d[5mC]*dA*dG*dG*d[5mC]*dA*dA*d[5mC]*d[5mC]*kA*k[5mC]*kA) [compound 799480] | 45% | –
798965 (antisense kT*kG*k[5mC]*d[5mC]*d[5mC]*d[5mC]*dT*dT*d[5mC]*dT*dT*d[5mC]*d[5mC]*kA*kA*kA) [compound 798965] | 43% | –
799114 (antisense k[5mC]*kA*kG*dG*dA*dT*dG*dG*dG*dA*dG*d[5mC]*dA*kG*kG*k[5mC]) [compound 799114] | – | 35%
798692 (antisense kG*kG*kG*d[5mC]*dG*d[5mC]*dA*d[5mC]*dG*dG*d[5mC]*dT*d[5mC]*k[5mC]*kT*k[5mC]) [compound 798692] | 48% | –
799057 (antisense kG*kG*k[5mC]*dT*d[5mC]*dG*d[5mC]*dT*dG*d[5mC]*dT*d[5mC]*dA*kG*kA*kA) [compound 799057] | – | 0%
799456 (antisense kT*k[5mC]*k[5mC]*dT*dA*dA*dG*dT*dA*d[5mC]*dT*dG*dT*kT*kA*kA) [compound 799456] | 0% | –
799127 (antisense kA*kG*kG*dG*dA*d[5mC]*dA*dT*d[5mC]*d[5mC]*d[5mC]*d[5mC]*dG*k[5mC]*kT*kT) [compound 799127] | 67% | –
799002 (antisense kA*k[5mC]*kA*dG*d[5mC]*d[5mC]*dG*d[5mC]*dA*d[5mC]*dA*d[5mC]*dT*k[5mC]*kA*k[5mC]) [compound 799002] | – | 15%
799167 (antisense kA*kA*kG*dA*dA*d[5mC]*dA*dG*dT*dG*dT*d[5mC]*dG*kA*kA*kG) [compound 799167] | 58% | –

Same assay, conditions: Hep3B cells, electroporation, 10,000 nM antisense oligonucleotide, approximately 24 hours, RTS5062, relative to untreated control cells

Substance | % inhibition of SMAD7 mRNA expression
799500 (antisense kG*kA*kG*d[5mC]*dA*dG*dA*d[5mC]*dG*dG*dG*d[5mC]*dA*kA*kG*kT) [compound 799500] | 28%
799633 (kA*kG*kA*d[5mC]*dT*dG*d[5mC]*d[5mC]*dA*dA*dA*dT*d[5mC]*kA*k[5mC]*kA; antisense) [compound 799633] | 25%
799779 (kT*kA*kA*dA*d[5mC]*dA*dA*dA*d[5mC]*d[5mC]*dA*d[5mC]*dA*kG*kG*kG; antisense) [compound 799779] | 19%
799736 (antisense kT*kT*k[5mC]*dT*dA*d[5mC]*dA*d[5mC]*d[5mC]*dT*dT*dT*dT*kA*kA*kG) [compound 799736] | 56%
799639 (k[5mC]*k[5mC]*kA*dG*dA*dG*dA*dG*dT*d[5mC]*dA*dG*dG*k[5mC]*kA*k[5mC]; antisense) [compound 799639] | 34%
799733 (antisense kG*kT*kT*dT*dA*dG*dG*dT*dA*dG*dA*dG*dT*kG*kG*k[5mC]) [compound 799733] | 27%
799758 (antisense k[5mC]*kA*k[5mC]*d[5mC]*dG*dT*dT*dA*d[5mC]*dT*dG*dG*dA*k[5mC]*kA*k[5mC]) [compound 799758] | 57%
799797 (kG*kA*k[5mC]*dA*dT*dT*dA*dG*dA*dT*dA*d[5mC]*dT*kG*kT*k[5mC]; antisense) [compound 799797] | 27%

Same assay, conditions: SMAD7 mRNA, Hep3B cells, 10,000 nM antisense oligonucleotide, electroporation, approximately 24 hours, primer probe set RTS5062, relative to untreated control cells

Substance | % Inhibition
829769 (antisense k[5mC]*kA*kG*d[5mC]*dA*dG*dG*dA*dG*dG*d[5mC]*dA*d[5mC]*kG*k[5mC]*kG) [compound 829769] | 46%
790678 (kT*k[5mC]*k[5mC]*dT*dA*dT*dT*dG*dG*d[5mC]*dT*dG*dA*kT*k[5mC]*kT; antisense) [compound 790678] | 46%
829726 (antisense k[5mC]*kT*k[5mC]*d[5mC]*dG*dT*dG*dG*d[5mC]*dA*dT*dG*d[5mC]*kG*k[5mC]*k[5mC]) [compound 829726] | 41%
829744 (antisense kA*k[5mC]*kG*dG*d[5mC]*dT*d[5mC]*d[5mC]*dT*d[5mC]*d[5mC]*dA*dG*kA*kG*kA) [compound 829744] | 39%
800798 (antisense k[5mC]*k[5mC]*kT*dG*dG*dA*dG*dT*d[5mC]*d[5mC]*dG*dG*dG*kT*kT*kG) [compound 800798] | 36%
790463 (kA*kT*kG*dA*dA*dG*dA*dA*dG*dT*d[5mC]*dG*dG*kG*k[5mC]*kG; antisense) [compound 790463] | 53%
829730 (antisense kG*k[5mC]*kA*dG*dG*d[5mC]*dG*d[5mC]*dA*dG*dG*d[5mC]*dG*kA*k[5mC]*kA) [compound 829730] | 23%
772552 (antisense kG*k[5mC]*kG*d[5mC]*d[5mC]*dT*dT*d[5mC]*dA*dG*dA*dT*d[5mC]*k[5mC]*kG*k[5mC]) [compound 772552] | 34%

Same assay, conditions: SMAD7 mRNA, Hep3B cells, electroporation with 10,000 nM antisense oligonucleotide, approximately 24 hours, primer probe set RTS5062, relative to untreated control cells

Substance | % Inhibition
829988 (kG*k[5mC]*k[5mC]*dG*d[5mC]*dG*dA*dG*dG*d[5mC]*dG*dG*dT*kG*kA*kT; antisense) [compound 829988] | 27%
829808 (kG*kG*kA*dG*dA*d[5mC]*dT*d[5mC]*dT*dA*dG*dT*dT*k[5mC]*kG*k[5mC]; antisense) [compound 829808] | 53%
829912 (antisense kA*kA*k[5mC]*dG*dA*d[5mC]*d[5mC]*dA*dA*dA*dG*dA*dG*kT*kT*kT) [compound 829912] | 24%
